According to US20260217701A1, “SELECTIVE BET INHIBITORS AND USES THEREOF” (Tay Therapeutics Limited, priority 2022, published 2026):
Several values for one entry are separate records, joined by “and”; a condition that tells them apart may be missing. Identical values can stand only once.

System: imiquimod-induced psoriasis
Experiment: Imiquimod-induced psoriasis model
Format: in vivo, mice
Details: for Body Weight D1: Day 1 (before treatment start on Day 8); for Body Weight D1 / Body Weight D3 / Body Weight D5 / Body Weight D7 / Body Weight D8 / Body Weight D9 / Body Weight D10 / Body Weight D11 / Body Weight D12 / Body Weight D13 / Body Weight D14 / Body Weight D15 / MBWC D1-D8 / MBWC D8-D15 / PASI Scores: individual animals; for Body Weight D3: Day 3 (before treatment start on Day 8); for Body Weight D5: Day 5 (before treatment start on Day 8); for Body Weight D7: Day 7 (before treatment start on Day 8); for Body Weight D8: Day 8 (first day of treatment); for Body Weight D9: Day 9; for Body Weight D10: Day 10; for Body Weight D11: Day 11; for Body Weight D12: Day 12; for Body Weight D13: Day 13; for Body Weight D14: Day 14; for Body Weight D15: Day 15; for MBWC D1-D8: body weight change Day 1 to Day 8 (before treatment); for MBWC D8-D15: body weight change Day 8 to Day 15 (treatment period); for PASI Scores: IMI + Compound B 1 mg/kg
Summary of the method: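 Mice given topical imiquimod (5% cream) daily on depilated backs Days 1–14; Compound A in 5% DMSO/40% PEG-400/55% saline from Day 8, clobetasol topical as reference. Daily PASI (erythema, induration, peeling, each 0–4, summed) Days 8–15; spleen weight, open-field behaviour, serum IL-1B, IL-6, IL-17, TNF-α, IL-22, IL-23 at Day 15.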

[1] = IMI + 1 mg/kg, 1 mg/kg, in g (unit assumed)
[2] = IMI + 3 mg/kg, 3 mg/kg, in g (unit assumed)
[3] = IMI + 10 mg/kg, 10 mg/kg, in g (unit assumed)

Compound: COCCn1cc(-c2ccccc2)c(-c2cn(C)c(=O)c3[nH]c(-c4cnn(C(F)(F)F)c4)cc23)cc1=O [Compound B, 4-(1-(2-methoxyethyl)-2-oxo-5-phenyl-1,2-dihydropyridin-4-yl)-6-methyl-2-(1-(trifluoromethyl)-1H-pyrazol-4-yl)-1,6-dihydro-7H-pyrrolo[2,3-c]pyridin-7-one]
- symptoms by day 15 (representative images) (10 mg/kg (printed 10 mg/ml)): nearly entirely symptom free
- mean PASI score on day 15, dose dependence (1, 3, 10 mg/kg, 10 mg/kg most effective): dose-dependent decrease in PASI scores
- efficacy on the treatment of psoriasis (2 lowest doses of 1.0 and 3.0 mg/kg bw): moderate efficacy
- Body Weight D1 (IMI + 1 mg/kg, 1 mg/kg): 17.85 and 16.71 and 18.14 (2×) and 17.67 and 18.64 and 18.37 and 17.36
- Body Weight D3 [1]: 16.05 and 15.75 and 16.34 and 16.73 and 17.52 and 16.25 and 15.31 and 17.36
- Body Weight D5 [1]: 15.71 and 15.27 and 17.54 and 16.77 and 17.97 and 16.83 and 15.98 and 16.57
- Body Weight D7 [1]: 16.02 and 15.76 and 17.96 and 17.02 and 17.69 and 17.48 and 16.75 and 17.68
- Body Weight D8 [1]: 15.83 and 15.34 and 17.54 and 16.58 and 17.61 and 16.23 and 16.35 and 17.45
- Body Weight D9 [1]: 15.70 and 15.29 and 17.68 and 16.64 and 17.26 and 15.94 and 16.69 and 17.21
- Body Weight D10 [1]: 15.94 and 15.03 and 17.60 and 16.38 and 17.13 and 16.08 and 15.92 and 17.66
- Body Weight D11 [1]: 16.10 and 14.61 and 17.64 and 16.08 and 17.41 and 16.29 and 16.64 and 17.72
- Body Weight D12 [1]: 16.03 and 14.93 and 17.80 and 16.29 and 17.39 and 16.49 and 16.17 and 17.53
- Body Weight D13 (IMI + 1 mg/kg, 1 mg/kg): 16.53 and 14.84 and 18.05 and 16.45 (2×) and 17.04 (2×) and 16.34
- Body Weight D14 [1]: 16.38 and 14.75 and 18.20 and 16.97 and 17.80 and 16.16 and 16.37 and 17.46
- Body Weight D15 [1]: 16.34 and 14.67 and 18.01 and 16.62 and 17.29 and 16.44 and 16.12 and 17.36
- MBWC D1-D8 (IMI + 1 mg/kg, 1 mg/kg): −2.02 and −1.37 and −0.60 and −1.09 and −1.03 and −2.14 and −1.01 and −0.69
- MBWC D8-D15 (IMI + 1 mg/kg, 1 mg/kg): 0.51 and −0.67 and 0.47 and 0.04 and −0.32 and 0.21 and −0.23 and −0.09
- Body Weight D1 [2]: 16.04 and 18.93 and 17.71 and 17.81 and 16.63 and 17.34 and 17.52 and 18.08
- Body Weight D3 [2]: 13.11 and 16.65 and 15.84 and 16.79 and 15.99 and 16.64 and 14.93 and 16.90
- Body Weight D5 [2]: 14.01 and 16.29 and 15.26 and 17.65 and 16.66 and 17.47 and 16.35 and 16.80
- Body Weight D7 [2]: 14.25 and 16.26 and 15.31 and 17.34 and 16.40 and 17.79 and 16.44 and 16.80
- Body Weight D8 (IMI + 3 mg/kg, 3 mg/kg): 13.57 and 15.67 and 15.44 and 17.59 and 16.51 (2×) and 17.07 and 16.13
- Body Weight D9 [2]: 13.93 and 15.56 and 15.22 and 17.78 and 16.23 and 17.14 and 15.89 and 16.28
- Body Weight D10 (IMI + 3 mg/kg, 3 mg/kg): 14.23 and 15.76 (2×) and 17.87 and 16.28 and 17.32 and 15.99 and 16.22
- Body Weight D11 [2]: 13.97 and 16.26 and 15.22 and 17.70 and 16.63 and 16.90 and 16.81 and 17.13
- Body Weight D12 [2]: 14.44 and 16.57 and 15.46 and 17.60 and 17.05 and 16.97 and 16.65 and 17.68
- Body Weight D13 [2]: 13.94 and 16.60 and 15.54 and 17.74 and 16.71 and 17.05 and 16.35 and 17.58
- Body Weight D14 [2]: 13.70 and 16.12 and 15.70 and 17.96 and 17.04 and 17.47 and 16.08 and 17.19
- Body Weight D15 (IMI + 3 mg/kg, 3 mg/kg): 13.78 and 16.88 and 15.93 and 18.05 and 17.29 (2×) and 17.08 and 15.94
- MBWC D1-D8 (IMI + 3 mg/kg, 3 mg/kg): −2.47 and −3.26 and −2.27 and −0.22 and −0.12 and −0.27 and −1.39 and −1.57
- MBWC D8-D15 (IMI + 3 mg/kg, 3 mg/kg): 0.21 and 1.21 and 0.49 and 0.46 and 0.78 (2×) and 0.01 and −0.19
- Body Weight D1 [3]: 18.66 and 16.97 and 17.99 and 16.59 and 14.70 and 18.45 and 16.88 and 17.79
- Body Weight D3 (IMI + 10 mg/kg, 10 mg/kg): 16.89 and 15.12 (2×) and 16.64 and 15.35 and 12.66 and 15.18 and 15.47
- Body Weight D5 [3]: 16.85 and 16.05 and 17.14 and 16.55 and 13.95 and 16.19 and 15.85 and 16.46
- Body Weight D7 (IMI + 10 mg/kg, 10 mg/kg): 17.09 and 15.74 and 18.31 and 16.60 and 14.04 and 16.64 (2×) and 16.00
- Body Weight D8 [3]: 16.51 and 15.56 and 18.14 and 16.14 and 14.02 and 16.16 and 15.50 and 16.26
- Body Weight D9 [3]: 16.61 and 15.20 and 17.85 and 15.85 and 13.92 and 15.86 and 15.31 and 16.41
- Body Weight D10 [3]: 16.48 and 15.64 and 18.33 and 16.10 and 13.59 and 15.70 and 15.00 and 15.80
- Body Weight D11 [3]: 16.44 and 15.87 and 17.94 and 16.30 and 14.37 and 16.54 and 16.26 and 16.95
- Body Weight D12 [3]: 16.63 and 16.40 and 18.54 and 16.96 and 14.74 and 16.69 and 16.23 and 17.34
- Body Weight D13 [3]: 17.12 and 16.52 and 18.44 and 16.93 and 14.68 and 16.17 and 16.27 and 16.95
- Body Weight D14 [3]: 17.36 and 16.91 and 18.32 and 17.28 and 15.12 and 16.21 and 16.48 and 17.35
- Body Weight D15 [3]: 18.01 and 16.93 and 18.51 and 17.31 and 15.47 and 16.86 and 16.66 and 17.96
- MBWC D1-D8 (IMI + 10 mg/kg, 10 mg/kg): −2.15 and −1.41 and 0.15 and −0.45 and −0.68 and −2.29 and −1.38 and −1.53
- MBWC D8-D15 (IMI + 10 mg/kg, 10 mg/kg): 1.50 and 1.37 and 0.37 and 1.17 and 1.45 and 0.70 and 1.16 and 1.70
- PASI Scores (D8 (day treatment started)): 7 (2×) and 6 (3×) and 8 (3×)
- PASI Scores (D9): 8 (3×) and 9 and 5 (3×) and 6
- PASI Scores (D10): 6 (4×) and 5 (2×) and 7 (2×)
- PASI Scores (D11): 8 and 6 (4×) and 4 and 7 and 9
- PASI Scores (D12): 6 (6×) and 4 and 5
